From patent publication US5185360A, “Dihydroindenoindole compounds and methods for using the same” (University of Bath, priority 1989, dated 1993)

Tests used:
[1] = system: lipid peroxidation of soy bean phospholipids; test: Ascorbate/Fe^2+-dependent lipid peroxidation; format: biochemical; settings: inhibition of ascorbate/Fe^2+-dependent lipid peroxidation by 50%; pH 7.4, room temperature, 30 min
From the text: (§1) The most important feature of the compounds of the invention is their efficacy as free-radical scavengers or antioxidants. An assay system measuring the concentration of the compounds of formulas (IA) and (IB) required to inhibit lipid peroxidation by 50% (IC50) was used. Other assays described below are the red blood cell fragility test used for measuring membrane stabilisation by indenoindoles. (Table 2), and protection by indenoindoles against cytotoxicity of N-methyl-N'-nitro-N-nitrosoguanidine (MNNG) in rat hepatocytes (Table 3). MNNG is a highly cytotoxic agent, the mechanism of action of which may involve a radical-mediated membrane destabilization.
For the ferrous/ascorbate lipid peroxidation system, 6.25 ml of 0.1 M potassium phosphate buffer (KPi), pH 7.4, was added to 12.5 mg dried soy bean phospholipids. After flushing with argon for 2 min, the suspension was sealed with five layers of Parafilm and sonicated until the suspension was translucent. The final reaction mixture was composed of 200 μg/ml phospholipid, 10 μM FeNH4 (SO4)2 or Fe(NH4)2 (SO4)2, and 100 μM ascorbic acid in 0.1 M KPi (pH 7.4), and the antioxidant to be tested in acetone or DMSO. The volume of vehicle never exceeded 1% of the total volume. The reaction was initiated by the addition of ascorbic acid plus iron. The reaction was continued at room temperature in a shaking water bath for 30 min and then stopped by the addition of […] of 0.5 M butylated hydroxytoluene in DMSO. The above procedure and the subsequent determination of 2-thibarbituric acid-reactive material is described in: Shertzer, H. G. et al, Biochem. Pharmacol. 37, 333 (1988).

rat hepatocytes = test: Protection against cytotoxic effects of MNNG in hepatocytes; format: cell-based, rat (male Sprague-Dawley); settings: Hepatocyte, concentration of compound required to extend by 1 hour the time needed for MNNG to kill 50% of the viable cells, 0.5 mM MNNG
From the text: as §1
The protective effects of indenoindoles on MNNG-induced cytotoxicity was assayed with rat hepatocytes. Hepatocytes were prepared from male Sprague-Dawley rats by collagenase treatment as originally described by Zahlten and Stratman (Zahlten, R. N. and Stratman, F. W., Arch. Biochem. Biophys. 163, 600 (1988)), as modified by Reitman et al. (Reitman, F. A. Shertzer, H. G. and Berger, M. L., Biochem. Pharmacol. 37, 3183 (1988)). In order to improve viability, cells were centrifuged through 0.508g/ml Percoll (Pharmacia AB, Uppsala, Sweden) in 137 mM NaCl, 8.1 mM Na2 HPO4 and 1.5 mM KH2 PO4 (pH 7.4). Putative protecting agents were added to the cells as solutions in DMSO, with the final concentration of DMSO never exceeding 5 μl/ml of cell suspension. MNNG was added to a concentration of 0.5 mM as a solution in ethanol, giving a final concentration of ethanol of 1%; ethanol alone was by itself without effect. Viability was determined as the percentage of cells that excluded 0.2% trypan blue. Values are the concentration of compound required to extend by 1 hour, the time needed for MNNG to kill 50% of the viable cells.

red blood cells = test: Membrane stabilization in red blood cells (red blood cell fragility test); format: cell-based, rat; settings: linear regression slope: percentage protection against osmolysis per μM protecting agent; pH 7.4
From the text: as §1
The membrane stabilization effect of indenoindoles was assayed by the red blood cell fragility test. Rats were anesthetized with 65 mg phenobarbital per kg body weight by i.p. injection. Blood samples were removed into a heparinized syringe from the left ventricle and diluted 20-fold with buffer containing 140 mM NaCl, 10 mM sodium citrate and 5 mM glucose (pH 7.4) at 0° C. Diluted blood was kept on ice. A 0.75 ml aliquot of blood was added to a 4 ml cuvette containing 10 μl of the antioxidant dissolved in DMSO vehicle. After I min of gentle swirling, 0.75 ml of 0.9 NaCl or H2 O were added to the cuvette by forceful pipetting, and the absorbance at 656 nm was recorded with a Beckman DU-70 spectrophotometer. When H2 O was added in the absence of a stabilizing agent, absorbance decreased within 15 sec to 0.8. Addition of NaCl instead of H2 O gave a time-independent absorbance of 2.2. In the presence of increasing concentrations of stabilizing chemicals, the absorbance decrease observed after the addition of water was diminished. The % protection from osmolysis was obtained from the equation [[(2.2-0.8)- A]/(2.2-0.8)]×100%, where A=2.2 minus the absorbance decrease when water is added in the presence of a known concentration of chemical. The % protection is then plotted against several concentrations of the chemical being treated. The red blood cell fragility protective index value (RBC-PIV) is the linear regression slope of this plot, expressed as the percentage protection against osmolysis per μM protecting agent.

lipid peroxidation = settings: Fd Chem. Toxicol. 26, 517 (1988); cited from earlier work
mouse liver microsomes = settings: NADPH-fortified mouse liver microsomes, initiated with CCl4; FASEB J. 2, A 407 (1988); cited from earlier work

SMILES: CCN(CC)c1ccc2c(c1)Cc1c-2[nH]c2ccccc12 [2-Diethylamino-DHII, 5,10-Dihydro-2-(N,N-diethylamino)indeno[1,2-b]indole]
- pIC50 [1]: 7.4

SMILES: CCNc1ccc2c(c1)Cc1c-2[nH]c2ccccc12 [2-Ethylamino-DHII, 5,10-Dihydro-2-(N-ethylamino)indeno[1,2-b] indole]
- pIC50 [1]: 7.9

SMILES: Cn1c2c(c3ccccc31)Cc1ccccc1-2 [5-Methyl-DHII, 5,10-Dihydro-5-methylindeno[1,2-b]indole]
- pIC50 [1]: 5.1
- IC50 (rat hepatocytes): 6 µM
- RBC-PIV (red blood cell fragility protective index value) (red blood cells): 0.74 %/μM

SMILES: Cc1cc(C)c2[nH]c3c(c2c1)Cc1ccccc1-3 [6,8-Dimethyl-DHII, 5,10-Dihydro-6,8-dimethylindeno[1,2-b]indole]
- pIC50 [1]: 6.1

SMILES: Clc1cccc2c3c([nH]c12)-c1ccccc1C3 [6-Chloro-DHII, 5,10-Dihydro-6-chloroindeno[1,2-b]indole]
- pIC50 [1]: 5.2

SMILES: Fc1ccc2[nH]c3c(c2c1)Cc1ccccc1-3 [8-Fluoro-DHII, 5,10-Dihydro-8-fluoroindeno[1,2-b]indole]
- pIC50 [1]: 5.6

SMILES: CC(C)c1ccc2[nH]c3c(c2c1)Cc1ccccc1-3 [8-Isopropyl-DHII, 5,10-Dihydro-8-iso-propylindeno[1,2-b]indole]
- pIC50 [1]: 5.6

SMILES: COc1ccc2[nH]c3c(c2c1)Cc1ccccc1-3 [8-Methoxy-DHII, 5,10-Dihydro-8-methoxyindeno[1,2-b]indole]
- pIC50 [1]: 6.2

SMILES: Cc1ccc2[nH]c3c(c2c1)Cc1ccccc1-3 [8-Methyl-DHII, 5,10-Dihydro-8-methylindeno[1,2-b]indole]
- pIC50 [1]: 5.7

SMILES: COc1ccc2[nH]c3c(c2c1)-c1ccccc1C3 [9-Methoxy-iso-DHII, 5,6-Dihydro-9-methoxyindeno[2,1-b]indole]
- pIC50 [1]: 6.4

SMILES: CC1(C)c2ccccc2-c2[nH]c3ccccc3c21 [10,10-Dimethyl-DHII, 5,10-Dihydro-10,10-dimethylindeno[1,2-b]indole]
- pIC50 [1]: 6.1
- RBC-PIV (red blood cell fragility protective index value) (red blood cells): 0.48 %/μM

SMILES: CC1c2ccccc2-c2[nH]c3ccccc3c21 (centres unmarked) [10-Methyl-DHII, 5,10-Dihydro-10-methylindeno[1,2-b]indole]
- pIC50 [1]: 5.7

SMILES: c1ccc2c(c1)Cc1c-2[nH]c2ccccc12 [DHII, 5,10-Dihydroindeno[1,2-b]indole]
- inhibition of lipid peroxidation (lipid peroxidation): potent inhibitor of lipid peroxidation
- pIC50 [1]: 5.8
- IC50 (rat hepatocytes): 3.1 µM
- RBC-PIV (red blood cell fragility protective index value) (red blood cells): 0.49 %/μM
- inhibition of lipid peroxidation (mouse liver microsomes): inhibiting lipid peroxidation

SMILES: c1ccc2c(c1)Cc1[nH]c3ccccc3c1-2 [iso-DHII, 5,6-Dihydroindeno[2,1-b]indole]
- pIC50 [1]: 5.8
- IC50 (rat hepatocytes): 3.4 µM
- RBC-PIV (red blood cell fragility protective index value) (red blood cells): 0.50 %/μM
- inhibition of lipid peroxidation (mouse liver microsomes): inhibiting lipid peroxidation

SMILES: Cc1c(C)c2c(c(C)c1O)CCC(C)(CCCC(C)CCCC(C)CCCC(C)C)O2 (stereo not drawn) [α-Tocopherol (Vitamin E), α-Tocopherol, reference compound]
- pIC50 [1]: 5.0
- RBC-PIV (red blood cell fragility protective index value) (red blood cells): 0.10 %/μM
